# Data published in patent US20230329989A1, “A PERSONAL CARE COMPOSITION COMPRISING AMINO ACIDS” (priority 2020, published 2023).
# Assays:
# S. epidermidis = assay: Growth of S. epidermidis in the presence of a single amino acid as supplement; format: cell-based; settings: 0.1% individual amino acid in 10% TSB + 1% glucose, 37° C., 24 hrs, absorbance at 600 nm normalized to control without amino acid; for activity at 0.1 %: Staphylococcus epidermidis
# Experimental: The growth of the above commensal bacteria due to the presence of each of the twenty different amino acids separately was studied. All 20 L-amino acids were procured from Hi media. The stocks were prepared in distilled water and filter sterilized by passing it through 0.22 μm filter. A 100 mM sodium phosphate buffer pH 7.4 was prepared and filter sterilized. Reaction was set up in a 96 well flat bottom transparent plate. […] The final concentration of individual amino acid was 0.1%. Each reaction was set up in triplicates. The plate was incubated at 37° C. under stationary conditions for 24 hrs. After 24 hrs, the absorbance of the plate was measured at 600 nm using TECAN plate reader. The absorbance values were then normalized to control (S. epidermidis grown in 10% TSB+1% glucose).
# S. aureus = assay: Growth kinetics of S. aureus with individual amino acids; format: cell-based; settings: 0.1 wt % individual amino acid; for inhibition of S. aureus (in words): among the seven selected; for Absorbance at 600 nm: S. aureus, growth till 20 hours
# Experimental: In order to identify a set of amino acids which are major contributors to the higher growth rate of S. aureus in Mix 7, growth kinetics experiments were carried out with all seven individual amino acids. […] The experiment was carried out for growth till 20 hours. They were carried out at 0.1 wt % concentration of the individual amino acid.
SMILES,activity at 0.1 % (S. epidermidis) [%],inhibition of S. aureus (in words) (S. aureus),Absorbance at 600 nm (S. aureus),% growth (S. epidermidis) [%]
"CC(N)C(=O)O (stereo not drawn) [Example 1A, Alanine]",139,maximum inhibition,0.447,–
"NC(=O)C[C@H](N)C(=O)O [Example 1C, Asparagine]",113,–,–,–
"NC(CC(=O)O)C(=O)O (stereo not drawn) [Example 1D, Aspartic acid]",121,maximum inhibition,0.540,–
"NC(CS)C(=O)O (stereo not drawn) [Example 1E, Cysteine]",121,maximum inhibition,0.476,–
"NCC(=O)O [Example 1F, Glycine]",–,–,0.863,135
"NC(=O)CC[C@H](N)C(=O)O [Example 1H, Glutamine]",109,–,–,–
"CC[C@H](C)[C@H](N)C(=O)O [Example 1J, Isoleucine]",99,–,–,–
"CC(C)C[C@H](N)C(=O)O [Example 1K, Leucine]",96,–,–,–
"CSCC[C@H](N)C(=O)O [Example 1M, Methionine]",87,–,–,–
"O=C(O)[C@@H]1CCCN1 [Example 1O, Proline]",93,–,–,–
"N[C@@H](CO)C(=O)O [Example 1P, Serine]",134,maximum inhibition,0.504,–
"N[C@@H](Cc1ccc(O)cc1)C(=O)O [Example 1Q, Tyrosine]",120,maximum inhibition,0.478,–
"C[C@@H](O)[C@H](N)C(=O)O [Example 1R, Threonine]",126,–,0.697,–
"CC(C)[C@H](N)C(=O)O [Example 1T, Valine]",96,–,–,–
"N[C@@H](Cc1c[nH]cn1)C(=O)O [Example 11, Histidine]",96,–,–,–
